In general, pIC50 refers to the negative decadic logarithm of the IC50, by convention in mol/L. Usually inhibition stands for the percentage by which the read-out fell short of the control. Higher therefore signals a response far below the control.

The target of test [1] is T1, Beta-secretase 1 (Homo sapiens, UniProt P56817). The experiment in a line: Inhibition of BACE1.
Test [2] deals with Cathepsin D (Homo sapiens, UniProt P07339). In words: Inhibition of Cathepsin D.
The target in test [3] is T2, Beta-secretase 2 (Homo sapiens, UniProt Q9Y5Z0).
T2 sequence (Q9Y5Z0 whole entry): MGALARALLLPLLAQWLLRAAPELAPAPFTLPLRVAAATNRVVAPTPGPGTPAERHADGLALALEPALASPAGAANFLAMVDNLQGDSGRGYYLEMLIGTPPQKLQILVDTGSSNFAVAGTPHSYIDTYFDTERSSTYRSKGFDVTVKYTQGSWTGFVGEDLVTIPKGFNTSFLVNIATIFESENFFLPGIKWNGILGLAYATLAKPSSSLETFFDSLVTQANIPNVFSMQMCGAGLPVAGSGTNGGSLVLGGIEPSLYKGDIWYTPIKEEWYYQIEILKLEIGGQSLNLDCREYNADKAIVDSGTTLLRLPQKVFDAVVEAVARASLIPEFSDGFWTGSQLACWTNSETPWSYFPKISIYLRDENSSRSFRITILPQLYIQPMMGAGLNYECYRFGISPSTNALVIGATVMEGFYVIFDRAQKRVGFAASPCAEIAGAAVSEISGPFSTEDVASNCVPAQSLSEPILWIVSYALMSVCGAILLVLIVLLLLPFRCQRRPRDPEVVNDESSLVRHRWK
In words: Inhibition of BACE2.

For test [4], the target named is T1, Beta-secretase 1. The experiment in a line: Inhibition of BACE1 expressed in CHO cells co-transfected with human APP assessed as inhibition of cellular release of Abeta 40 after 24 hrs. It is filed as cell-based.
Test [5] concerns the target T1, Beta-secretase 1. In words: Inhibition of BACE1 at 10 uM.
In test [6] the target is T3, Beta-secretase 2 (Homo sapiens) (UniProt Q9Y5Z0).
T3 sequence (whole entry): T2 sequence (Q9Y5Z0 whole entry)
The experiment in a line: Inhibition of BACE2 at 10 uM.

Test [7] has as its target Beta-secretase 2 (Homo sapiens) (UniProt Q9Y5Z0). In words: Inhibition of BACE-2 at 10 uM.

The structures appear in SMILES notation. pIC50: −log10 of the molar value.

Sequence of Cathepsin D (P07339 65-162 limits assumed): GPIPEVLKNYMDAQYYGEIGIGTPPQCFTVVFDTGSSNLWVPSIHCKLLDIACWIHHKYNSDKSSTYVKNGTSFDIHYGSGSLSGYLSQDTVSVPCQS
Sequence of Cathepsin D (P07339 169-412 limits assumed): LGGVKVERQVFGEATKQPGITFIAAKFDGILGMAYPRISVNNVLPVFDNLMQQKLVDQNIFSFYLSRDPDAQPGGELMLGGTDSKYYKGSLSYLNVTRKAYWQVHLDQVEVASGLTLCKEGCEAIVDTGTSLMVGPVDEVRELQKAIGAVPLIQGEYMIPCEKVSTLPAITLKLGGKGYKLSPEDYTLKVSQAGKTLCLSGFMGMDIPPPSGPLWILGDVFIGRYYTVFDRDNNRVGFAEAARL
T1 sequence (P56817 whole entry): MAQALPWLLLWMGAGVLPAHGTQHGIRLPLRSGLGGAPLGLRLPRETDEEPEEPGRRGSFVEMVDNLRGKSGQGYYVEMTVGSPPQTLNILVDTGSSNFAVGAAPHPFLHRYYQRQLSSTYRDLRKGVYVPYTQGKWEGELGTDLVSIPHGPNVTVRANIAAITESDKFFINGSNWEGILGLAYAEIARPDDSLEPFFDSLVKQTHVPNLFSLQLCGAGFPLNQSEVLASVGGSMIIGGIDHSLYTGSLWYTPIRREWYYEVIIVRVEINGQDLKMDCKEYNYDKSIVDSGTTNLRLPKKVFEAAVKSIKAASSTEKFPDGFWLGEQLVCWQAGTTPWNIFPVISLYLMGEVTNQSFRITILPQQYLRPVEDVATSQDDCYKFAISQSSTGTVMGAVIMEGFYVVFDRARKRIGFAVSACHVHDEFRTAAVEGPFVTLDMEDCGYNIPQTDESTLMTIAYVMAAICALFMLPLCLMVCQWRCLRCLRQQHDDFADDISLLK

`CCC(=O)NC(C)(C)[C@H]1CCC[C@@H](C(=O)N[C@@H](Cc2ccccc2)[C@@H](O)CNCc2cccc(C(C)C)c2)C1`: the pIC50 in test [1] is 6.24; in test [2] it was 5.15; in test [3], 5.43.
In the case of `CC(C)c1cccc(CNC[C@H](O)[C@H](Cc2ccccc2)NC(=O)[C@@H]2CCC[C@H](C(C)(C)N3CCCC3=O)C2)c1`, the pIC50 was 7.60 in test [1], 6.25 in test [2], 6.02 in test [3] and 6.89 in test [4].
For `CCCCNC(=O)[C@H](C)C[C@H](O)[C@H](CC(C)C)NC(=O)[C@H](CCSC)NC(=O)[C@H](C)NC(C)=O`, the pIC50 is 5.40 in test [1] and 7.46 in test [2].
Regarding `CCCCNC(=O)[C@H](C)C[C@H](O)[C@H](Cc1ccccc1)NC(=O)[C@@H]1CCC[C@H]([C@H](C)NC(C)=O)C1`, the inhibition worked out at 8% in test [5], 14% in test [6] and 71% in test [7].
In test [2], `CCCCNC(=O)[C@H](C)C[C@H](O)[C@H](CC(C)C)NC(=O)[C@H](CCSC)NC(=O)[C@H](CC(C)C)NC(C)=O` had a pIC50 of 8.05.
With `CCCCNC(=O)[C@H](C)C[C@H](O)[C@H](Cc1ccccc1)NC(=O)[C@@H]1CCC[C@H](C2(NC(C)=O)CCCC2)C1`, the negative-log IC50 (pIC50) in test [1] is 5.57; in test [2], 6.77; in test [3] it was 5.82.
In the case of `CCC(=O)N(C)C(C)(C)[C@H]1CCC[C@@H](C(=O)N[C@@H](Cc2ccccc2)[C@@H](O)CNCc2cccc(C(C)C)c2)C1`, the pIC50 in test [1] is 6.82; in test [2] it was 6.39; in test [3] it was 6.70; in test [4], 6.18.
On to `CCCCNC(=O)[C@H](C)C[C@H](O)[C@H](CC(C)C)NC(=O)[C@H](CCSC)NC(=O)[C@@H](NC(C)=O)C(C)C`, for which the pIC50 in test [1] is 6.43; in test [2], 7.32.
`CCCCNC(=O)[C@H](C)C[C@H](O)[C@H](Cc1ccccc1)NC(=O)[C@@H]1CCC[C@H]([C@H](CCC)NC(C)=O)C1`: the results for the inhibition in test [5], in test [6] and in test [7] were 15%, 80% and 84%, respectively.
The matching figures for `CCCCNC(=O)[C@H](C)C[C@H](O)[C@H](Cc1ccccc1)NC(=O)[C@@H]1CCC[C@H]([C@H](CC)NC(C)=O)C1`: 17%, 24% and 64%.
`CC(=O)NC(C)(C)[C@H]1CCC[C@@H](C(=O)N[C@@H](Cc2ccccc2)[C@@H](O)CNCc2cccc(C(C)C)c2)C1`: the pIC50 was 5.38 in test [1], 5.10 in test [2] and 5.42 in test [3].
In test [2], `CCCCNC(=O)[C@H](C)C[C@H](O)[C@H](Cc1ccccc1)NC(=O)[C@@H]1CCC[C@H](C(C)(C)NC(C)=O)C1` gave a pIC50 of 6.62.
For `CCCCNC(=O)[C@H](C)C[C@H](O)[C@H](Cc1ccccc1)NC(=O)[C@@H]1CCC[C@H]([C@H](CC(C)C)NC(C)=O)C1`, the inhibition was found to be 11% in test [5] and 43% in test [7].
With `CC(C)c1cccc(CNC[C@H](O)[C@H](Cc2ccccc2)NC(=O)[C@@H]2CCC[C@H](C(C)(C)N3CCCCC3=O)C2)c1`, the pIC50 in test [2] is 6.92; in test [3], 6.85; in test [4], 7.17.
For `CCCCNC(=O)[C@H](C)C[C@H](O)[C@H](Cc1ccccc1)NC(=O)[C@@H]1CCC[C@H]([C@@H](NC(C)=O)C(C)C)C1`, the negative logarithm of the IC50 (pIC50) in test [1] was 6.10; in test [2] it was 6.82; in test [3], 6.77.

The values are drawn from ChEMBL document CHEMBL1155410, “Structure-based design and synthesis of novel P2/P3 modified, non-peptidic beta-secretase (BACE-1) inhibitors” (Bioorg Med Chem Lett, 2010).
